How the values were obtained:
[1] = target: T1, dopamine (DA) D-2 receptor (Rattus norvegicus, UniProt P61169); assay: Test A: antagonism of [^3 H]-spiperone binding (D-2 receptor binding assay, rat striatal membranes); details: 0.5 nM [^3 H] spiperone, 40 nM ketanserin, pH 7.7, 37° C., 15 min, typical values, read-out: IC50 (drug concentration which produced a 50% displacement of [^3 H] spiperone)
T1 construct: rat striatal membranes were used; from tissue; host or cells: rat striatum (membranes)
T1 sequence (P61169 whole entry): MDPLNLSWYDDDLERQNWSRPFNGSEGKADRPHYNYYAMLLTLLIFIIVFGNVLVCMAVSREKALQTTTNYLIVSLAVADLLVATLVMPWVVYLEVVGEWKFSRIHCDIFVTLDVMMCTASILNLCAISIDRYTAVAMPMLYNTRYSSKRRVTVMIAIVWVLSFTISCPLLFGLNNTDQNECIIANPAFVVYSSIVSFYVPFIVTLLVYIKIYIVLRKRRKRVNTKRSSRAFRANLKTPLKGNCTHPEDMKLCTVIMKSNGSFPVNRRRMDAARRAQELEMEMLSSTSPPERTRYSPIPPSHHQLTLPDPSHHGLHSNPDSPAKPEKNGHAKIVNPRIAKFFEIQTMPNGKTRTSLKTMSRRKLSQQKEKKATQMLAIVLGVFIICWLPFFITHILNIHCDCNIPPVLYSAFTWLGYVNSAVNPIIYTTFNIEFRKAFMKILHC
Description: (§1) The compounds of Formula I are antagonists of dopamine D-2 receptors, and as such are predicted to be useful as antipsychotic drugs. D-2 antagonism can be shown by standard tests such as antagonism of [^3 H]-spiperone binding (Test A), and/or antagonism of apomorphine-induced climbing and apomorphine- induced disruption of swimming (Test B).
The receptor binding assay used to measure affinities of various compounds for the dopamine (DA) D-2 receptor subtype was that described by Saller and Salama in J Pharmacol Exp Ther 236, page 714, 1986.
Specifically, rat striatal membranes were used. Tissue membranes were prepared and washed once in 50 volumes of the appropriate Tris HCl buffer. For the D-2 receptor binding assay, striatal membranes were suspended to a final concentration of 8 mg/ml in 50 mM Tris HCl with 40 nM ketanserin, pH 7.7. Nonspecific binding to D-2 receptors was measured in the presence of 1.0 μM (+)-butaclamol. IC50 s (drug concentration which produced a 50% displacement) for the displacement of 0.5 nM [^3 H] spiperone were determined using at least five concentrations of each drug in triplicate. One-half milliliter of membrane suspension was incubated with the compound of interest or vehicle or nonspecific drug, ligand and appropriate Tris HCl buffer. The final reaction volume totaled 1 ml for each tube and was incubated at 37° C. for 15 min to facilitate binding and ensure equilibrium had been met. A Brandel filtering system equipped with GF/B filters was used to separate bound from free drug. The amount of drug bound to the membranes was assessed using liquid scintillation counting techniques. IC50 values were obtained from a least squares regression of a logit-log transformation of the data. Typical values in this test were, for example, 103 nM (nanomolar) for the compound of Example 6, 84 nM for the compound of Example 15, and 15 nM for the compound of Example 21.

[2] = test system: apomorphine-induced climbing and apomorphine-induced disruption of swimming; assay: Test B: antagonism of apomorphine-induced climbing and apomorphine-induced disruption of swimming; assay type: in vivo; details: Mus musculus; oral, female Swiss-Webster mice, 30 min before apomorphine HCl 1.25 mg/kg sc; typical values; read-out: minimum effective dose (decrease in climbing score accompanied by increase in swimming score)
Description: as §1
Female Swiss-Webster mice weighing approximately 20 g were deprived of food for approximately 24 h and then dosed orally with various doses of either the vehicle or test agent over a range of doses (N=20 mice per treatment group). Thirty minutes later they were dosed with apomorphine HCl at 1.25 mg/kg, sc, and placed into climbing cages. The climbing cages were 9 cm wide, 15 cm deep and 30 cm high. One wall had 27 horizontal rungs spaced 1 cm apart. Thirteen minutes after apomorphine each mouse was observed continuously for 1 min and the highest and lowest rung reached by its front paws was recorded. The mean of these two scores was used as the score for that mouse. (The highest and lowest scores were 27 and 0, respectively.) Immediately after the 1-min climbing observation period each mouse was placed into a circular swimming tank for 2 min and the number of swims was counted. The height of the tank was 15 cm and the diameter was 28 cm. A circular obstacle measuring 10.5 cm in diameter and having a height of 17 cm was placed into the center of the tank, creating a circular swimming channel 8.75 cm wide. The water level was 5.5 cm and the water was kept at room temperature. Marks were placed on the floor and side of the tank 180 degrees apart. A "swim" was scored each time a mouse swam from one mark to the other. The mice were observed through overhead mirrors and the number of 180 degree swims was recorded for each mouse. Activity in this test was indicated by a decrease in the climbing score accompanied by an increase in the swimming score at a given dose of the test compound. Typical values of minimum effective doses in this test were 10 mg/kg for the compound of Example 6 and 20 mg/kg for each of the compounds of Examples 15 and 21.

| IC50 [1] [nM] | SMILES | minimal effective dose [2] [mg/kg] |
| --- | --- | --- |
| 103 | OC(c1cccnc1)C1CCN(CC23CC(c4ccccc42)c2ccccc23)CC1 (stereo not drawn) [Example 6, 1-[1-(9,10-Dihydro-9,10-methanoanthracen-9-ylmethyl)-4-piperidyl]-1-(3-pyridyl)methanol] | 10 |
| 15 | COc1ccc(C(O)C2CCN(CC34CC(c5ccccc53)c3ccc(Cl)cc34)CC2)cc1 (racemic) [Example 21, (R,S)-1-[1-((9RS, 10RS)-2-Chloro-9,10-dihydro-9,10-methanoanthracen-9-ylmethyl)-4-piperidyl]-1-(4-methoxyphenyl)methanol] | 20 |
| 84 | COc1cccc(C(O)C2CCN(CC34CC(c5ccccc53)c3ccc(Cl)cc34)CC2)c1 (racemic) [Example 15, (R,S)-1-[1-((9RS,10RS)-2-Chloro-9,10-dihydro-9,10-methanoanthracen-9-ylmethyl)-4-piperidyl]-1-(3-methoxyphenyl)methanol] | 20 |
